# Data taken from PubChem BioAssay (NCI).
#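 Briefly, cells in 96-well plates were exposed to five compound concentrations for 48 h, and endpoints were estimated by linear interpolation. The concentration for full growth arrest is given as TGI.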
# Columns and labels:
# Test in all cases: growth of human tumour cells (NCI), 48 h
# [1] = test system: NCI-H522 lung
# [2] = test system: EKVX NSCLC
# [3] = test system: HCT-15 colon
# [4] = test system: NCI-H226 lung
# [5] = test system: NCI-H460 lung
# [6] = test system: HL-60(TB) leukemia
# [7] = test system: SF-268 CNS
# [8] = test system: MDA-MB-435
# [9] = test system: OVCAR-4 ovarian
# [10] = test system: HS 578T breast
# [11] = test system: OVCAR-3 ovarian
# [12] = test system: HT29 colon
# [13] = test system: SF-539 CNS
# [14] = test system: IGROV1 ovarian
# [15] = test system: SK-MEL-2 melanoma
# [16] = test system: K-562 leukemia
# [17] = test system: M14 melanoma
# [18] = test system: A549 NSCLC
# [19] = test system: MCF7 breast
# [20] = test system: UACC-62 melanoma
# [21] = test system: CAKI-1 renal
# [22] = test system: OVCAR-5 ovarian
# [23] = test system: TK-10 renal
# [24] = test system: HCC-2998 colon
# [25] = test system: SW-620 colon
# [26] = test system: RXF 393 renal
# [27] = test system: SN12C renal
# [28] = test system: MDA-MB-231 breast
# [29] = test system: RPMI-8226 leukemia
# [30] = test system: 786-0 renal
# [31] = test system: HCT-116 colon
# [32] = test system: SNB-75 CNS
# [33] = test system: ACHN renal
# [34] = test system: NCI/ADR-RES ovarian
# [35] = test system: SK-MEL-28 melanoma
# [36] = test system: PC-3 prostate
# [37] = test system: DU-145 prostate
# [38] = test system: A498 renal
# [39] = test system: HOP-62 NSCLC
# [40] = test system: COLO 205 colon
# [41] = test system: MDA-N
# [42] = test system: T-47D breast
# [43] = test system: MOLT-4 leukemia
# [44] = test system: KM12 colon
# [45] = test system: UACC-257 melanoma
# [46] = test system: HOP-92 NSCLC
# [47] = test system: SF-295 CNS
# [48] = test system: MALME-3M melanoma
# [49] = test system: LOX IMVI melanoma
# [50] = test system: UO-31 renal
# [51] = test system: BT-549 breast
# [52] = test system: NCI-H23 lung
# [53] = test system: SK-OV-3 ovarian
# [54] = test system: OVCAR-8 ovarian
# [55] = test system: SNB-19 CNS
# [56] = test system: U251 CNS
# [57] = test system: SK-MEL-5 melanoma
smiles,measurement,setting,value
CCOC(=O)/C=C(/C(=O)OCC)n1c(=O)c(C)cn(C2CC(N=[N+]=[N-])C(CO)O2)c1=O (configuration not stated),TGI,[1],> 100 µM
same,TGI,[2],94 µM
same,TGI,[3],> 100 µM
same,TGI,[4],> 100 µM
same,TGI,[5],> 100 µM
same,TGI,[6],5.18 µM
same,TGI,[7],> 100 µM
same,TGI,[8],> 100 µM
same,TGI,[9],> 100 µM
same,TGI,[10],> 100 µM
same,TGI,[11],50.3 µM
same,TGI,[12],> 100 µM
same,TGI,[13],47.9 µM
same,TGI,[14],> 100 µM
same,TGI,[15],72 µM
same,TGI,[16],> 100 µM
same,TGI,[17],> 100 µM
same,TGI,[18],> 100 µM
same,TGI,[19],50.2 µM
same,TGI,[20],> 100 µM
same,TGI,[21],83.9 µM
same,TGI,[22],> 100 µM
same,TGI,[23],> 100 µM
same,TGI,[24],31.4 µM
same,TGI,[25],34.1 µM
same,TGI,[26],57.2 µM
same,TGI,[27],> 100 µM
same,TGI,[28],46 µM
same,TGI,[29],49 µM
same,TGI,[30],72 µM
same,TGI,[31],> 100 µM
same,TGI,[32],> 100 µM
same,TGI,[33],> 100 µM
same,TGI,[34],> 100 µM
same,TGI,[35],84.6 µM
same,TGI,[36],32.8 µM
same,TGI,[37],> 100 µM
same,TGI,[38],> 100 µM
same,TGI,[39],> 100 µM
same,TGI,[40],30.1 µM
same,TGI,[41],> 100 µM
same,TGI,[42],> 100 µM
same,TGI,[43],25.6 µM
same,TGI,[44],> 100 µM
same,TGI,[45],86.1 µM
same,TGI,[46],76.6 µM
same,TGI,[47],> 100 µM
same,TGI,[48],> 100 µM
same,TGI,[49],> 100 µM
same,TGI,[50],> 100 µM
same,TGI,[51],> 100 µM
same,TGI,[52],> 100 µM
same,TGI,[53],> 100 µM
same,TGI,[54],> 100 µM
same,TGI,[55],> 100 µM
same,TGI,[56],37.4 µM
CCC(=N\NC(N)=S)/C(C)=N/O,TGI,[2],> 100 µM
same,TGI,[3],> 100 µM
same,TGI,[4],> 100 µM
same,TGI,[57],> 100 µM
same,TGI,[5],> 100 µM
same,TGI,[7],> 100 µM
same,TGI,[8],> 100 µM
same,TGI,[9],> 100 µM
same,TGI,[10],> 100 µM
same,TGI,[11],> 100 µM
same,TGI,[12],> 100 µM
same,TGI,[13],> 100 µM
same,TGI,[14],> 100 µM
same,TGI,[15],> 100 µM
same,TGI,[16],> 100 µM
same,TGI,[17],> 100 µM
same,TGI,[18],> 100 µM
same,TGI,[19],> 100 µM
same,TGI,[20],> 100 µM
same,TGI,[21],> 100 µM
same,TGI,[22],> 100 µM
same,TGI,[23],> 100 µM
same,TGI,[24],> 100 µM
same,TGI,[25],> 100 µM
same,TGI,[26],> 100 µM
same,TGI,[27],> 100 µM
same,TGI,[28],> 100 µM
same,TGI,[29],> 100 µM
same,TGI,[30],> 100 µM
same,TGI,[31],> 100 µM
same,TGI,[33],> 100 µM
same,TGI,[34],> 100 µM
same,TGI,[35],> 100 µM
same,TGI,[36],> 100 µM
same,TGI,[37],> 100 µM
same,TGI,[39],> 100 µM
same,TGI,[40],> 100 µM
same,TGI,[41],> 100 µM
same,TGI,[42],> 100 µM
same,TGI,[44],> 100 µM
same,TGI,[45],> 100 µM
same,TGI,[46],> 100 µM
same,TGI,[47],> 100 µM
same,TGI,[48],> 100 µM
same,TGI,[49],> 100 µM
same,TGI,[50],> 100 µM
same,TGI,[52],> 100 µM
same,TGI,[53],> 100 µM
same,TGI,[54],> 100 µM
same,TGI,[55],> 100 µM
same,TGI,[56],> 100 µM
